Experimental data as given in patent US12061143B2, “Methods for rapid determinations of antibiotic susceptibility phenotypes” (priority 2018, dated 2024).

Tests used:
Type in all cases: cell-based
[1] = tested on: A. nosocomialis strain M2; experiment: FAST flow cytometry AST with PB-sQF, bacteria recovered from 10% human blood; conditions: M2 spiked in 10% human blood, assayed within 8 hrs of simulated blood draw
Experimental: Varied counts of bacteria were mixed with human blood and diluted 1:9 (v/v) with bacterial growth medium to desired bacterial concentrations (<10 CFU/mL final solution) and plated to independently confirm CFU/mL blood. Saponin was immediately added and the samples shaken for 15 minutes to achieve selective blood cell lysis. After hemolysis, bacteria were spun down and washed with PBS. […] This allowed comparison of fold distances among all samples as each is individually paired to its own control, as is each replicate.
To simulate a blood specimen from a patient with bacteremia, the isolates were grown, diluted to the desired CFU/mL in blood (ZenBio, Research Triangle Park, NC) and saponin was added to achieve the final diluted sample. Initial bacterial cultures were prepared using Luria-Bertani (LB) broth for (E. coli) or cation-adjusted Mueller-Hinton broth (CAMHB). The fresh bacterial cultures started from ˜0.05 optical density (OD) by inoculating a 6-mL fresh growth medium with overnight culture were grown in an incubator shaker (MaxQ 4000, Thermal Fisher Scientific, Waltham, MA) at 37° C. and 225 rpm. […] Bacterial densities were determined by plating onto LB plates. […]
Cytometric data were collected by BD LSRFortessa flow cytometer (Becton Dickinson, Franklin Lake, NY) equipped with a 100 mW, 488 nm laser for the scatter signal. […] Data were recorded with FACSDiVa provided by BD. […]

K. pneumoniae Mu670 = experiment: MIC by broth microdilution AST
Experimental: (§1) Varied counts of bacteria were mixed with human blood and diluted 1:9 (v/v) with bacterial growth medium to desired bacterial concentrations (<10 CFU/mL final solution) and plated to independently confirm CFU/mL blood. Saponin was immediately added and the samples shaken for 15 minutes to achieve selective blood cell lysis. After hemolysis, bacteria were spun down and washed with PBS. The pellets were resuspended in bacterial growth medium and incubated at 37° C. for 2 hours, followed by another 3-hour incubation with antibiotics at various fractions of the minimum inhibition concentration (MIC, as independently determined by microdilution from the pure starting culture, Table 1) for sensitive strains or at the CLSI MIC resistant breakpoints^(12) for the highly resistant strains. Changes in scattered light signals largely resulting from bacterial growth inhibition were monitored by flow cytometry, and the difference in the 2-D scatter histograms with and without antibiotic treatment was quantified with PB-sQF statistics.^(1) Using PB-sQF, distance was calculated for each antibiotic concentration relative to its own no-antibiotic control and expressed as “fold distance” relative to the 99% confidence limit distance between the no-antibiotic control and the sensitive breakpoint. This allowed comparison of fold distances among all samples as each is individually paired to its own control, as is each replicate.
(§2) All clinical isolates (E. coli strains Mu14S and Mu890, K. pneumoniae strains Mu670 and Mu55, A. nosocomialis strains M2) were obtained from the Georgia Emerging Infection Program (GEIP). The MIC of each isolate was determined by a clinical microbiology laboratory using post blood culture automated AST and confirmed using broth microdilution in our laboratory. The MICs of each strain were measured to be as follows. For A. nosocomialis strain M2, 1 μg/mL tetracycline, 2 μg/mL gentamicin, and >1024 μg/mL ampicillin. For E. coli strain Mu890, 1 μg/mL tetracycline, 8 μg/mL gentamicin, and >1024 μg/mL ampicillin. For E. coli strain Mu14S, >64 μg/mL tetracycline, 8 μg/mL gentamicin, and >1024 μg/mL ampicillin. For K. pneumoniae strain Mu55, >64 μg/mL tetracycline, 1 μg/mL gentamicin, and >1024 μg/mL ampicillin. For K. pneumoniae strain Mu670, 2 μg/mL tetracycline, 4 μg/mL gentamicin, and >1024 μg/mL ampicillin.

E. coli Mu14S = experiment: MIC by broth microdilution AST
Experimental: as §1, §2

E. coli Mu890 = experiment: MIC by broth microdilution AST; conditions: E. coli Mu890
Experimental: as §1, §2

K. pneumoniae Mu55 = experiment: MIC by broth microdilution AST
Experimental: as §1, §2

A. nosocomialis M2 = experiment: MIC by broth microdilution AST
Experimental: as §1, §2

E. coli strain Mu890 = experiment: FAST flow cytometry AST with PB-sQF, bacteria recovered from 10% human blood
Experimental: as §1
(§3) To simulate a blood specimen from a patient with bacteremia, the isolates were grown, diluted to the desired CFU/mL in blood (ZenBio, Research Triangle Park, NC) and saponin was added to achieve the final diluted sample. Initial bacterial cultures were prepared using Luria-Bertani (LB) broth for (E. coli) or cation-adjusted Mueller-Hinton broth (CAMHB). The fresh bacterial cultures started from ˜0.05 optical density (OD) by inoculating a 6-mL fresh growth medium with overnight culture were grown in an incubator shaker (MaxQ 4000, Thermal Fisher Scientific, Waltham, MA) at 37° C. and 225 rpm. After the culture reached mid-log phase, bacteria were collected and diluted into ˜10 CFU/mL through serial 10-fold dilutions. Bacterial densities were determined by plating onto LB plates. The final 10-fold dilution was performed by adding 500 μL of 100 CFU/mL into 4500 μL of 10% human blood in medium.
(§4) A 2.5% (w/v) of saponin solution was prepared, sonicated (Branson 2510, Emerson, St. Louis, MO) for 20 minutes and spun down with a clinical centrifuge (Centrific Model 228, Fisher Scientific, Waltham, MA) for 4 minutes. The supernatant cleared of particulates was collected. 500 μL of 2.5% saponin was then added to the 5 mL of 10% human blood sample with ˜10 CFU/mL, described above and the mixtures were shaken at 300 rpm for 15 minutes at 37° C. After the saponin treatment, the bacteria were pelleted and washed with 2 mL of phosphate buffered saline (PBS) (Life Technologies, Carlsbad, CA) using a clinical centrifuge for 2 minutes. Bacterial growth medium (2.5 mL) was then added to the tube and incubated for 2 hours at 37° C. and 225 rpm.
(§5) After the 2-hour incubation, 500-μL aliquots of the suspension were added to each of 4 wells in a 12-well microtiter plate that contained 500 μL of growth medium with or without antibiotic at 2-fold of specified concentrations. The plate was then incubated at 37° C. for 3 hours. Bacteria were collected by centrifugation (Centrifuge 5417R, Eppendorf) and resuspended in 200 μL of PBS for flow cytometry detection. To ensure each clinical isolate was tested at its MIC values of the tested antibiotics, the initial bacterial cultures at the 1000 CFU/mL dilution were also tested for each experiment (FIGS. 4A-4F, 5A-5F, 7A-7F, 8A-8F, and 9A-9F), confirming that the antibiotic concentrations indeed inhibited bacterial growth.
(§6) Cytometric data were collected by BD LSRFortessa flow cytometer (Becton Dickinson, Franklin Lake, NY) equipped with a 100 mW, 488 nm laser for the scatter signal. […]

[2] = tested on: K. pneumoniae strain Mu670; experiment: as above; conditions: ~9 CFU/mL after 10-fold dilution
Experimental: as §1, §3, §4, §5, §6

[3] = tested on: K. pneumoniae strain Mu55; experiment: as above; conditions: ~8 CFU/mL after 10-fold dilution
Experimental: as §1, §3, §4, §5, §6

[4] = class according to 2016 CLSI handbook
[5] = microdilution from pure culture

Question: How did the “PB-sQF FAST susceptibility” value [1] turn out when Gentamicin was run?
Answer: The value was “susceptible”.

Question: What about the “MIC (S/I/R)” value (K. pneumoniae Mu670; [4]) of the same substance?
Answer: The value was “(S)”.

Question: What about the MIC (K. pneumoniae Mu670; [5]) of the same substance?
Answer: The MIC was 4 µg/mL.

Question: And the “MIC (S/I/R)” value (E. coli Mu14S; [4])?
Answer: Its value is “(I)”.

Question: What about the MIC (E. coli Mu14S; [5]) of the same substance?
Answer: The MIC was 8 µg/mL.

Question: And the “MIC (S/I/R)” value (E. coli Mu890; [4])?
Answer: Its value is “(I)”.

Question: What about the MIC (E. coli Mu890; [5]) of the same substance?
Answer: The MIC was 8 µg/mL.

Question: And the “MIC (S/I/R)” value (K. pneumoniae Mu55; [4])?
Answer: Its value is “(S)”.

Question: And the MIC (K. pneumoniae Mu55; [5])?
Answer: The MIC was 1 µg/mL.

Question: And the “MIC (S/I/R)” value (A. nosocomialis M2; [4])?
Answer: The value was “(S)”.

Question: And the MIC (A. nosocomialis M2; [5])?
Answer: Its MIC is 2 µg/mL.

Question: And the “PB-sQF fold distance-based FAST result” value (E. coli strain Mu890; Mu890, beyond the 99% confidence level)?
Answer: Its value is “effective”.

Question: And the “FAST antibiotic-induced scatter signal change” value (E. coli strain Mu890; Mu890 treated at the MIC, 3-hr incubation, vs paired no-antibiotic control)?
Answer: Its value is “effective growth inhibition”.

Question: What about the “PB-sQF FAST result” value [2] of the same substance?
Answer: Its value is “appropriate”.

Question: And the “PB-sQF FAST result” value [3]?
Answer: The value was “appropriate”.
